Data published in article PMC10192158 (Cancer Chemotherapy and Pharmacology, 2023).
Where “and” joins values, the source holds several entries; their conditions need not be identical. Equal entries are not always repeated. Where two headings read alike, the source gives them in different places. Blank lines part the entries; values can stand above or below the molecule they belong to.

Experiments:
VEGFR2 [1] = molecular target: T1, VEGFR2 (Homo sapiens, UniProt P35968); assay: VEGFR2 kinase activity, off-chip mobility shift assay (MSA), dose-response
VEGFR1/FLT1 = molecular target: T2, VEGFR1/FLT1 (Homo sapiens, UniProt P17948); assay: Kinase panel enzyme activity assay (MSA or IMAP), percent inhibition at fixed concentration; format: biochemical
T2 construct: purchased Carna Biosciences, Inc. (Kobe, Japan)
Protocol: (§1) Kinase assays were performed to evaluate inhibitor activity on VEGFR2 and other kinases using either mobility shift assays (MSA) or immobilized metal ion affinity particle (IMAP) assays at Carna Biosciences, Inc (Kobe, Japan). The panel of kinases assayed comprises all wild-type kinases available for profiling at Carna Biosciences, Inc. For VEGFR2, the same cytoplasmic domain was used as in the SPR binding assay.
(§2) Off-chip MSA was performed by preparing a 4 × substrate/ATP/metal solution using kit buffer (20 mM HEPES, 0.01% Triton X-100, 5 mM DTT, pH 7.5), and a 2 × kinase solution was prepared in assay buffer (20 mM HEPES, 0.01% TritonX-100, 1 mM DTT, pH 7.5). […] A 4 × compound solution and the 4 × substrate/ATP/metal solution, and 2 × kinase solution were mixed and incubated in a 384-well microplate at room temperature for 1 or 5 h, dependent on the kinase. Termination Buffer (QuickScout Screening Assist MSA; Carna Biosciences) was added to the well, and the reaction mixture was applied to the LabChip™ system (Perkin Elmer) to separate and quantitate the product and substrate peptide peaks. The kinase reaction was measured using the product ratio calculated from the peak heights of the product (P) and substrate (S) peptides: [P/(P + S)].
(§3) For the IMAP assays, a 4 × substrate/ATP/metal solution and 2 × kinase solution were prepared using assay buffer (20 mM HEPES, 0.01% Tween 20, 2 mM DTT, pH 7.4). ATP concentrations in the solution were within twofold of the affinity for ATP (KM,ATP) for each individual kinase. Then, the 4 × compound solution, 4 × substrate/ATP/metal solution, and 2 × kinase solution were mixed and incubated in a single well of a polystyrene 384-well black microplate. After incubating for 1 h at room temperature, IMAP-binding reagent (IMAP Screening Express kit; Molecular Devices) was added to the well and incubated for 30 min. The kinase reaction in each well was measured via fluorescence polarization at excitation of 485 nm and emission of 530 nm.
(§4) IC50 values were calculated by fitting a 4-parameter logistic curve to the percentage inhibition values at the tested concentrations.
(§5) To compare the selectivity of rivoceranib and the 10 reference inhibitors, we performed either IMAP assays or off-chip MSA to assess the residual kinase activity of a panel of 270 kinases in the presence of 160 nM or 1600 nM rivoceranib or 1000 nM of reference inhibitor. The 270 kinases represent a broad representation of the more than 500 kinases encoded by the human genome.

PDGFRβ = molecular target: T3, PDGFRβ (Homo sapiens, UniProt P09619); assay: as above; format: biochemical
T3 construct: purchased Carna Biosciences, Inc. (Kobe, Japan)
Protocol: as §1, §2, §3, §4, §5

RET = molecular target: T4, RET (Homo sapiens, UniProt P07949); assay: as above; format: biochemical
T4 construct: purchased Carna Biosciences, Inc. (Kobe, Japan)
Protocol: as §1, §2, §3, §4, §5

VEGFR3/FLT4 = molecular target: T5, VEGFR3/FLT4 (Homo sapiens, UniProt P35916); assay: as above; format: biochemical
T5 construct: purchased Carna Biosciences, Inc. (Kobe, Japan)
Protocol: as §1, §2, §3, §4, §5

VEGFR2/KDR = molecular target: T6, VEGFR2/KDR (Homo sapiens, UniProt P35968); assay: as above; format: biochemical
T6 construct: cytoplasmic domain of VEGFR2, encompassing amino acid residue 790 to 1356 (C-terminus); purchased Carna Biosciences, Inc. (Kobe, Japan); host or cells: insect cells
Protocol: as §1, §2, §3, §4, §5

KIT = molecular target: T7, KIT (Homo sapiens, UniProt P10721); assay: as above; format: biochemical
T7 construct: purchased Carna Biosciences, Inc. (Kobe, Japan)
Protocol: as §1, §2, §3, §4, §5

VEGFR2 [2] = settings: cited from earlier work
panel of 270 kinases [3] = assay: Selectivity across panel of 270 kinases (residual activity radar chart, kinome tree)
VEGFR2 [4] = molecular target: T1, VEGFR2; assay: Surface plasmon resonance (Biacore T200) binding of rivoceranib to biotinylated VEGFR2 cytoplasmic domain
panel of 270 kinases [5] = tested on: panel of 270 kinases; parameters: method as in PMID 24651269, PMID 30381447; settings: 1000 nM reference inhibitor, compared among all inhibitors profiled; cited from earlier work
[6] = SPR, individual replicates 1a, 1b, 2a, 2b
[7] = 1000 nM reference inhibitor, panel of 270 kinases

T5 sequence (P35916 25-1363): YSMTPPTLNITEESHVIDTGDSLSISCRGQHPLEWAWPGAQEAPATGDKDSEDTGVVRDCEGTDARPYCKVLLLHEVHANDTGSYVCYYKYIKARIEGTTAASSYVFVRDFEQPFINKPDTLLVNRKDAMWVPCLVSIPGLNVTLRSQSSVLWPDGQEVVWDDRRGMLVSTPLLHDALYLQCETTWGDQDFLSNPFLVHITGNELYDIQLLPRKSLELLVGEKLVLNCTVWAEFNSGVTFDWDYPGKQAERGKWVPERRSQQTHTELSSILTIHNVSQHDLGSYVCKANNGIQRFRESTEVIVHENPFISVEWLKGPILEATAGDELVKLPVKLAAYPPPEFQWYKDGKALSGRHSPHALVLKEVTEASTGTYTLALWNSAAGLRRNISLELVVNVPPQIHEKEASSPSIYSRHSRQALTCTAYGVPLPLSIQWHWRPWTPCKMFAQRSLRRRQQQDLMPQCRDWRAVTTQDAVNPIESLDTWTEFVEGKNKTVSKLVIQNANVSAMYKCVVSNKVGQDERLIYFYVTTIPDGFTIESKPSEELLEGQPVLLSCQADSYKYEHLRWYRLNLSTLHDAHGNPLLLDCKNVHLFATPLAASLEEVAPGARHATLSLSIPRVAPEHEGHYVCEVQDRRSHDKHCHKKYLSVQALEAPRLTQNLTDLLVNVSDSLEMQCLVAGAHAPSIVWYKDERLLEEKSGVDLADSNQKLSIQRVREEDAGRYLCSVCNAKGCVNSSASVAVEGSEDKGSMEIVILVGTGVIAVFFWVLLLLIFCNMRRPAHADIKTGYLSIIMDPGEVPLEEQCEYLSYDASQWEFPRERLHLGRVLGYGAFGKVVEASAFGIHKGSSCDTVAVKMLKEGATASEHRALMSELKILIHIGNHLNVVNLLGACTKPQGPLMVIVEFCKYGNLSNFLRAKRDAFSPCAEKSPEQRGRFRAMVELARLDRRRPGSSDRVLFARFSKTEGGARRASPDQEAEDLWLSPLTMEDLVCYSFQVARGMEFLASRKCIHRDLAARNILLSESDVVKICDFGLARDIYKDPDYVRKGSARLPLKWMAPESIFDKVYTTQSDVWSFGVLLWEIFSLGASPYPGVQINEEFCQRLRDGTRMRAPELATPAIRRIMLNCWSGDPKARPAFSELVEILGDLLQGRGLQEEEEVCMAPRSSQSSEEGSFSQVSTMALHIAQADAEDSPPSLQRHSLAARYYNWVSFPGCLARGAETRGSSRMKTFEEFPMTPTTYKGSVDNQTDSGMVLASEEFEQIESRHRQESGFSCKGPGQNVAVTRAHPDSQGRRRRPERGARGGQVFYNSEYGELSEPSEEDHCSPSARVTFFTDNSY
T4 sequence (P07949 29-1114): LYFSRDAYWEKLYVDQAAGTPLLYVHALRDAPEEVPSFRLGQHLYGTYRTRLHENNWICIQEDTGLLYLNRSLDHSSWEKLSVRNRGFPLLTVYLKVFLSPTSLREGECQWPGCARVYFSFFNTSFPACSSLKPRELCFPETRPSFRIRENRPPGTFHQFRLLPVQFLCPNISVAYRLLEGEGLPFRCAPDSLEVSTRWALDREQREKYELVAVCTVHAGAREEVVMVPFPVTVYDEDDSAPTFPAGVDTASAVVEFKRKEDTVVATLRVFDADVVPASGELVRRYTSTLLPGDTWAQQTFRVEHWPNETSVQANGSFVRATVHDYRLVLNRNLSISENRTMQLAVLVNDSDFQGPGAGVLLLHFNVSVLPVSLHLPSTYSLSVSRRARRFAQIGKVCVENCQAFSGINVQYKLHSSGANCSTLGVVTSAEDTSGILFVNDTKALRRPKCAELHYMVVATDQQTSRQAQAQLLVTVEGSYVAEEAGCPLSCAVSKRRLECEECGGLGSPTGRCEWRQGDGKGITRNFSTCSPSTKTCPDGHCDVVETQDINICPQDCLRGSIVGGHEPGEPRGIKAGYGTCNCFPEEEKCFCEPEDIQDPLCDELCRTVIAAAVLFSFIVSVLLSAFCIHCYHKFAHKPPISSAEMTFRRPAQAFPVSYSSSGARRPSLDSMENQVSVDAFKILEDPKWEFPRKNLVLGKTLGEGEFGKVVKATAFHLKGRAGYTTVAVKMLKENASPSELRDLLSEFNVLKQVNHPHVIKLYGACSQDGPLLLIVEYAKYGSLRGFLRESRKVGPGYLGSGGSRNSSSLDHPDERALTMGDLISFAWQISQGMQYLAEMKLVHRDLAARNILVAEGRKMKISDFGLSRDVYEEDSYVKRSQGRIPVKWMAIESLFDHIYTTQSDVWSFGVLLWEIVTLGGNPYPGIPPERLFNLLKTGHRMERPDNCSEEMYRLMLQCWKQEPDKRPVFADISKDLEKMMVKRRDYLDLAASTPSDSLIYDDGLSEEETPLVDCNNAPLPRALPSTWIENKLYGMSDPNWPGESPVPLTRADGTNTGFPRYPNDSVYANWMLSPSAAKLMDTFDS
T1 sequence (P35968 790-1356): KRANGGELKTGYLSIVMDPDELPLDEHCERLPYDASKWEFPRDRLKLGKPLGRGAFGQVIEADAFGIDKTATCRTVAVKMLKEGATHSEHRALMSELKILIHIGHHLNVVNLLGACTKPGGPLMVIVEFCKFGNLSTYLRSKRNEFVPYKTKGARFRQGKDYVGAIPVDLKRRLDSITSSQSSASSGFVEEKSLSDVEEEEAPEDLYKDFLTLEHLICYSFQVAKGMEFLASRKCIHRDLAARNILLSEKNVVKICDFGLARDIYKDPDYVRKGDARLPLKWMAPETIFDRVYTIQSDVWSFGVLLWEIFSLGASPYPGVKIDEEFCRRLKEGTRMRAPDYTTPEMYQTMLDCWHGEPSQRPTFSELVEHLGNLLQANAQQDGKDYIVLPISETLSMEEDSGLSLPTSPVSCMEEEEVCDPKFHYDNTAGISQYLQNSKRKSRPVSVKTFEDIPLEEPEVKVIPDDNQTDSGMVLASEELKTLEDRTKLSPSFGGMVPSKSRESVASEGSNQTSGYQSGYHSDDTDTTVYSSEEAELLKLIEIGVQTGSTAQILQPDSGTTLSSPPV
T6 sequence (P35968 790-1356): as above
T7 sequence (P10721 26-976): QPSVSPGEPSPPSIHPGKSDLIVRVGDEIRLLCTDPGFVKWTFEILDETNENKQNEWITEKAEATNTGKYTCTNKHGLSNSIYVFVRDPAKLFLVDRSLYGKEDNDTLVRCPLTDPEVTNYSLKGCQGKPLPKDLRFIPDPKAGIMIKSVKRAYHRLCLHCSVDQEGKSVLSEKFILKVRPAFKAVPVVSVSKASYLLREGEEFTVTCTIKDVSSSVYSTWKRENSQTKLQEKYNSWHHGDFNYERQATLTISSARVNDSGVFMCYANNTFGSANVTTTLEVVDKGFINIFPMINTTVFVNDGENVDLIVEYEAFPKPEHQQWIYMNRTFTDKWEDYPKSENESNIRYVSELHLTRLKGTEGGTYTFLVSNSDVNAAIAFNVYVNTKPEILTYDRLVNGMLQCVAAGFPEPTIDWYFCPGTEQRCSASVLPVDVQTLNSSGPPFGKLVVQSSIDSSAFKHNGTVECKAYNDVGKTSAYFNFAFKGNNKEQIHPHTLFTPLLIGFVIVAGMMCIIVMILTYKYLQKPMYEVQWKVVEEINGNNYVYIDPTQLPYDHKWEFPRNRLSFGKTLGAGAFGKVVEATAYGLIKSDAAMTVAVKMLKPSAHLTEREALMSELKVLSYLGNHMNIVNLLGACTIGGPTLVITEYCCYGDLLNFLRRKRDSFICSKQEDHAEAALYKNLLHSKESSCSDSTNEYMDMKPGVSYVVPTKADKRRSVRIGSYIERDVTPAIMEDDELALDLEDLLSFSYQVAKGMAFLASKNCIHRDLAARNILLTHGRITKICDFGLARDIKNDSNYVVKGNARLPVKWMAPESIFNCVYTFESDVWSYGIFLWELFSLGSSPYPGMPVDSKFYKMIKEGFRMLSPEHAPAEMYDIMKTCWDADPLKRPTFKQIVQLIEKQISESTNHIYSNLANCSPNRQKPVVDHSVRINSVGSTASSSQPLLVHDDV
T3 sequence (P09619 33-1106): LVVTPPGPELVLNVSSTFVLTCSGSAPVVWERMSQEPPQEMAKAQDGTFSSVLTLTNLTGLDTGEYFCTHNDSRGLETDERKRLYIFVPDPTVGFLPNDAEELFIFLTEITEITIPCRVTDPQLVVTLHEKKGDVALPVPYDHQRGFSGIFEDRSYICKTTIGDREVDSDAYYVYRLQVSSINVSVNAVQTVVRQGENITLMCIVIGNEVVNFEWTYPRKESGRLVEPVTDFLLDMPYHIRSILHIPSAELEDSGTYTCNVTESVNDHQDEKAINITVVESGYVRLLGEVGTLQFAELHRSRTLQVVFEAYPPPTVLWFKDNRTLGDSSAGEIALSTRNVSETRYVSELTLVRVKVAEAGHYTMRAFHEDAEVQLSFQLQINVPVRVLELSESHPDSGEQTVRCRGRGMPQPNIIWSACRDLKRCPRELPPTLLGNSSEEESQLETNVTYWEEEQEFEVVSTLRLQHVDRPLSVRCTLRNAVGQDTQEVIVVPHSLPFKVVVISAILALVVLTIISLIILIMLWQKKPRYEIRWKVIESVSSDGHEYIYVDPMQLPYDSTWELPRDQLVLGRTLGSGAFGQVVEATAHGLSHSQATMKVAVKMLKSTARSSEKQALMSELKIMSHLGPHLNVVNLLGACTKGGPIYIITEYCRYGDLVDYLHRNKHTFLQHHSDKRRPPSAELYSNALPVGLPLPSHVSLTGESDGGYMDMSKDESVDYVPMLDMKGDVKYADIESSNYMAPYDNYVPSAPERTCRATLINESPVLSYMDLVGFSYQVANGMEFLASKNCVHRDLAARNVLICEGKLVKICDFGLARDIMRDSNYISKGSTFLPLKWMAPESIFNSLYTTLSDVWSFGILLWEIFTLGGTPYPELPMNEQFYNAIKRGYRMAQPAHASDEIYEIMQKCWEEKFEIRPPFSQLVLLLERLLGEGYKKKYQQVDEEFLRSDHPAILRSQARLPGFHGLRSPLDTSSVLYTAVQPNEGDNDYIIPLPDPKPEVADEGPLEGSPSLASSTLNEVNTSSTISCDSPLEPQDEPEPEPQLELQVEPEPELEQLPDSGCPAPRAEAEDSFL

- IC50 (VEGFR2 [1]): 16 nM
- Percent inhibition (VEGFR1/FLT1; rivoceranib 160 nM): 93.27%
- inhibition at […] (VEGFR1/FLT1; rivoceranib 160 nM): 93.3%
- Percent inhibition (VEGFR1/FLT1; rivoceranib 1600 nM): 99.53%
- inhibition at […] (VEGFR1/FLT1; rivoceranib 1600 nM): 99.5%
- Percent inhibition (PDGFRβ; rivoceranib 160 nM): 62.11%
- inhibition at […] (PDGFRβ; rivoceranib 160 nM): 62.1%
- inhibition at […] (PDGFRβ; rivoceranib 1600 nM): 94.8%
- Percent inhibition (RET; rivoceranib 160 nM): 71.72%
- inhibition at […] (RET; rivoceranib 160 nM): 71.7%
- Percent inhibition (RET; rivoceranib 1600 nM): 97.89%
- inhibition at […] (RET; rivoceranib 1600 nM): 97.9%
- inhibition at […] (VEGFR3/FLT4; rivoceranib 160 nM): 92.9%
- Percent inhibition (VEGFR3/FLT4; rivoceranib 1600 nM): 99.33%
- inhibition at […] (VEGFR3/FLT4; rivoceranib 1600 nM): 99.3%
- Percent inhibition (VEGFR2/KDR; rivoceranib 160 nM): 96.12%
- inhibition at […] (VEGFR2/KDR; rivoceranib 160 nM): 96.1%
- Percent inhibition (VEGFR2/KDR; rivoceranib 1600 nM): 100.79%
- inhibition at […] (VEGFR2/KDR; rivoceranib 1600 nM): 101%
- inhibition at […] (KIT; rivoceranib 160 nM): 47.3%
- Percent inhibition (KIT; rivoceranib 1600 nM): 92.58%
- inhibition at […] (KIT; rivoceranib 1600 nM): 92.6%
- Overall residual kinase activity across the panel of kinases (panel of 270 kinases [3]; 160 nM and 1600 nM rivoceranib, compared among all inhibitors profiled): the greatest residual kinase activity
- Kd (VEGFR2 [4]; KD (binding affinity, KD = kd/ka), SPR, single-cycle kinetics, 22 °C, 1:1 model, based on four replicates): 2.08 nM and 2 nM and ~2 nM
- Kd (VEGFR2 [4]; KD, SPR, individual replicates 1a, 1b, 2a, 2b): 3.06 nM and 1.84 nM and 1 nM and 3.34 nM
- kd (VEGFR2 [4]; SPR, geometric average of four replicates): 0.000807 s⁻¹
- kon (VEGFR2 [4]; read-out: ka, SPR, geometric average of four replicates): 387000 M⁻¹ s⁻¹
SMILES: N#CC1(c2ccc(NC(=O)c3cccnc3NCc3ccncc3)cc2)CCCC1 [rivoceranib]
- IC50 (VEGFR2 [2]; read-out: IC50 for VEGFR2 kinase inhibition in a previous study, ATP 10 µM): 1 nM
- ka (VEGFR2 [4]; [6]): 303000 M⁻¹ s⁻¹ and 253000 M⁻¹ s⁻¹ and 445000 M⁻¹ s⁻¹ and 659000 M⁻¹ s⁻¹
- kd (VEGFR2 [4]; [6]): 0.000775 s⁻¹ and 0.000557 s⁻¹ and 0.000445 s⁻¹ and 0.0022 s⁻¹

SMILES: CCN(CC)CCNC(=O)c1c(C)[nH]c(/C=C2\C(=O)Nc3ccc(F)cc32)c1C [sunitinib]
- Overall residual kinase activity across the panel of kinases (panel of 270 kinases [5]): the least residual kinase activity
- Number of additional kinases beyond VEGFR2 inhibited by > 50% (panel of 270 kinases [3]; [7]): 125

SMILES: CNC(=O)c1cc(Oc2ccc(NC(=O)Nc3ccc(Cl)c(C(F)(F)F)c3)c(F)c2)ccn1 [regorafenib]
- IC50 (VEGFR2 [2]; read-out: Reported IC50 values (VEGFR2), published literature, ref Wilhelm SM et al., Int J Cancer. 2011): 4 nM

SMILES: COc1cc2nccc(Oc3ccc(NC(=O)Nc4cc(C)on4)c(Cl)c3)c2cc1OC [tivozanib]
- Number of additional kinases beyond VEGFR2 inhibited by > 50% (panel of 270 kinases [3]; [7]): more than 70

SMILES: COc1cc2nccc(Oc3ccc(NC(=O)NC4CC4)c(Cl)c3)c2cc1C(N)=O [lenvatinib]
- IC50 (VEGFR2 [2]; read-out: Reported IC50 values (VEGFR2), published literature, ref Brody T., 2018): 4 nM
- Number of kinases inhibited by 50% or more (panel of 270 kinases [3]; [7]): 31
